Assay [1] has as its target LSD1/CoREST complex (Homo sapiens, UniProt O60341). In words: Inhibition of human recombinant LSD1/CoREST protein expressed in Escherichia coli using monomethylated H3-K4 peptide (21 amino acids) as substrate preincubated for 15 mins followed by substrate addition measured for 12 mins by HRP-coupled Ultrared detection system-based fluorescence analysis.
Assay [2] concerns the target LSD1/CoREST complex (Homo sapiens) (UniProt O60341+Q9UKL0). As to the kind of experiment: Potency index, ratio of trans-benzyl 1-(4-(2-aminocyclopropyl)phenylamino)-1-oxo-3-phenylpropan-2-ylcarbamate hydrochloride IC50 to compound IC50 for human recombinant LSD1/CoREST protein expressed in Escherichia coli.
Assay [3] deals with Lysine-specific histone demethylase 1A (Homo sapiens) (UniProt O60341). In words: Inhibition of LSD1 in human NB4 cells assessed as induction of ITGAM mRNA expression at IC50 after 24 hrs by quantitative RT-PCR analysis relative to vehicle-treated control. The format is cell-based. As to conditions: NB-4.
For assay [4] the target is unchanged. In words: Inhibition of LSD1 in human NB4 cells assessed as induction of GFI-1b mRNA expression at IC50 after 24 hrs by quantitative RT-PCR analysis relative to vehicle-treated control. Format: cell-based. As to conditions: NB-4.
The target of assay [5] is T1, Amine oxidase [flavin-containing] A (Homo sapiens, UniProt P21397).
T1 sequence (P21397 whole entry): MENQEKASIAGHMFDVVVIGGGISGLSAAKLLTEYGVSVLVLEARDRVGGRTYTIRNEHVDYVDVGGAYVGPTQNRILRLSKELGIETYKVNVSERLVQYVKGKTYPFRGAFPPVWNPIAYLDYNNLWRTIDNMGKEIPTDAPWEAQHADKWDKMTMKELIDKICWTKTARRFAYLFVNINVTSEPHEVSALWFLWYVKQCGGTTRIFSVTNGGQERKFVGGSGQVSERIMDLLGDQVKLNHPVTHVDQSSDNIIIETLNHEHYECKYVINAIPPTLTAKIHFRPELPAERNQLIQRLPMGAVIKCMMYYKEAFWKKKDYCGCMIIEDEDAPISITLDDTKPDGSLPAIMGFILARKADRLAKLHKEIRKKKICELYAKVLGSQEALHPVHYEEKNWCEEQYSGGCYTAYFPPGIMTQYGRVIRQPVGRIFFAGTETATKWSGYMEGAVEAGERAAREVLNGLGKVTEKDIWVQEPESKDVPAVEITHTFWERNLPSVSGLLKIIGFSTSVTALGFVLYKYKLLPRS
As to the kind of experiment: Inhibition of human recombinant MAO A expressed in Pichia pastoris using kynuramine as substrate preincubated for 15 mins followed by substrate addition by horseradish peroxidase coupled-spectrofluorimetric assay.

Assay [6] addresses T2, Amine oxidase [flavin-containing] B (Homo sapiens, UniProt P27338).
T2 sequence (P27338 whole entry): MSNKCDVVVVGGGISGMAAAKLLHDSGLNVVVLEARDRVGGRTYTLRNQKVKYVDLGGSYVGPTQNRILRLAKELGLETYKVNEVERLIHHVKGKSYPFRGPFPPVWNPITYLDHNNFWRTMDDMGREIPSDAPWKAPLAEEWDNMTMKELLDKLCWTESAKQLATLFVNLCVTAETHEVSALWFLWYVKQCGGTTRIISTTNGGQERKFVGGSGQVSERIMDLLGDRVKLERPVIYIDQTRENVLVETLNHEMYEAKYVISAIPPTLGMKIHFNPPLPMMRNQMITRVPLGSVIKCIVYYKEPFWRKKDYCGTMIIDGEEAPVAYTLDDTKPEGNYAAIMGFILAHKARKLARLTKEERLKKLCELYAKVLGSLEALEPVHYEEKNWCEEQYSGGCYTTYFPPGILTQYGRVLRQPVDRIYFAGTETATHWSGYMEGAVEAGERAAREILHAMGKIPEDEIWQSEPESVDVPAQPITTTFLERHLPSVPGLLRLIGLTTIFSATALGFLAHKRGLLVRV
As to the kind of experiment: Inhibition of human recombinant MAO B expressed in Pichia pastoris using benzylamine as substrate preincubated for 15 mins followed by substrate addition by horseradish peroxidase coupled-spectrofluorimetric assay.

Assay [7] relates to MV4-11. As to the kind of experiment: Cytotoxicity against human MV4-11 cells assessed as growth inhibition after 72 hrs by CellTiter-Fluor Cell Viability assay. The format is functional, cell-based. Conditions: MV4-11, 72 h.
Assay [8] is described as follows: Cytotoxicity against human NB4 cells assessed as growth inhibition after 72 hrs by CellTiter-Fluor Cell Viability assay. Conditions: NB-4, 72 h. The format is functional, cell-based.
The species entered for assay [9] is Homo sapiens. As to the kind of experiment: Selectivity ratio of IC50 for human recombinant MAO A to IC50 for human recombinant LSD1/CoREST.
Assay [10] relates to MV4-11. As to the kind of experiment: Potency index, ratio of trans-benzyl 1-(4-(2-aminocyclopropyl)phenylamino)-1-oxo-3-phenylpropan-2-ylcarbamate hydrochloride IC50 to compound IC50 for human MV4-11 cells. Format: functional.
For assay [11], the system named is NB-4. As to the kind of experiment: Potency index, ratio of trans-benzyl 1-(4-(2-aminocyclopropyl)phenylamino)-1-oxo-3-phenylpropan-2-ylcarbamate hydrochloride IC50 to compound IC50 for human NB4 cells. Format: functional.
Assay [12] in a line: Cytotoxicity against human NB4 cells assessed as growth inhibition at 100 uM after 72 hrs by CellTiter-Fluor Cell Viability assay. Conditions: NB-4, 72 h. The format is functional.

Where only a bound is given, the exact number is not on record here.

Chain of LSD1/CoREST complex (Homo sapiens) (Q9UKL0 whole entry, looked up, other chains not shown): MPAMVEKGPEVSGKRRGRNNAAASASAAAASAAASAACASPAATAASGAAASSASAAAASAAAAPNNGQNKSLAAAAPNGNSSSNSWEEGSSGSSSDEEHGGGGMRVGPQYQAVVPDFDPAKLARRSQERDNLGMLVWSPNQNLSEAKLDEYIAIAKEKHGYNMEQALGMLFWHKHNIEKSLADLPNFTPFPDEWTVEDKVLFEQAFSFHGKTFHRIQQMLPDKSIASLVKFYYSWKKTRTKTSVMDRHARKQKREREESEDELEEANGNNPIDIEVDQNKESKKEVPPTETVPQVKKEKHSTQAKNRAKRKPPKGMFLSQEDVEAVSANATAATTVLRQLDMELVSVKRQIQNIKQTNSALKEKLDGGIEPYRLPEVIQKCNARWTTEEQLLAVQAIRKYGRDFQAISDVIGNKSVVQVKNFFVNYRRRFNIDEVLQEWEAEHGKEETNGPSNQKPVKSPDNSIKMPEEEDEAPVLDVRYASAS

Regarding `N[C@@H]1C[C@H]1c1ccc(NC(=O)c2cc3ccccc3[nH]2)cc1`, the IC50 in [1] was 65 nM. Also, the Ratio IC50 in assay [2] came to 2. Also, the fold change (FC) in assay [3] is less than 4; in assay [4], less than 6.
Turning to `N[C@@H]1C[C@H]1c1ccc(NC(=O)c2ccc[nH]2)cc1`, the IC50 in [1] is 163 nM. Besides, the fold change (FC) in assay [3] was less than 4; in assay [4] it was less than 6.
Turning to `N[C@@H]1C[C@H]1c1ccc(NC(=O)c2ccn(C(=O)OCc3ccccc3)c2)cc1`, the IC50 stood at 50 nM in assay [1]; 110 nM in assay [5]; 3900 nM in [6]; 15200 nM in assay [7]; 22300 nM in assay [8]. Further, the Ratio IC50 in assay [2] is 3; in assay [9] it was less than 8. Besides, the fold change (FC) in assay [3] was less than 4; in [4] it was less than 6.
With `Cl.N[C@@H]1C[C@H]1c1ccc(NC(=O)c2cc3ccccc3n2C(=O)OCc2ccccc2)cc1` (relative stereo), the IC50 is 40 nM in assay [1]; 160 nM in assay [5]; more than 60000 nM in assay [6]; 5900 nM in assay [7]; 6500 nM in assay [8]. For the same molecule, the Ratio IC50 in assay [2] is 3.7; in [10], 2; in assay [11], 2; in [9], less than 8. In addition, the fold change (FC) in [3] is less than 4; in assay [4] it was less than 6.
As for `N[C@@H]1C[C@H]1c1ccc(NC(=O)c2cc3ccccc3n2CC(=O)Nc2ccccc2)cc1` (relative stereo), the IC50 in [1] turned out to be 87 nM. For the same molecule, in assay [2], the Ratio IC50 was 2. Besides, the values for the fold change (FC) in assay [3] and in assay [4] were less than 4 and less than 6, respectively.
As to `N[C@@H]1C[C@H]1c1ccc(NC(=O)c2cccn2CC(=O)Nc2ccccc2)cc1` (relative stereo), in [1], the IC50 is 125 nM. In addition, the fold change (FC) in assay [3] was less than 4; in assay [4] it was less than 6.
For `N[C@@H]1C[C@H]1c1ccc(NC(=O)CNC(=O)OCc2ccccc2)cc1` (relative stereo), the 50% inhibitory concentration (IC50) in [1] stood at 304 nM.
`N[C@@H]1C[C@H]1c1ccc(NC(=O)c2cccn2C(=O)OCc2ccccc2)cc1` (relative stereo): the IC50 in assay [1] turned out to be 32 nM; in [5], 260 nM; in assay [6], 75800 nM; in assay [7], 6800 nM. The Ratio IC50 in [2] was 5; in assay [9], less than 8. The fold change (FC) was less than 4 in assay [3] and less than 6 in [4]. Also, the inhibition at 100 µM in assay [12] was 56%.
For the molecule `N[C@@H]1C[C@H]1c1ccc(NC(=O)c2cc3ccccc3n2CC(=O)NCc2ccccc2)cc1` (relative stereo), the half-inhibitory concentration (IC50) in assay [1] is 308 nM.
`N[C@@H]1C[C@H]1c1ccc(NC(=O)c2cc3ccccc3n2CC(=O)c2ccccc2)cc1` (relative stereo): the IC50 in [1] came to 853 nM.
`Cl.N[C@@H]1C[C@H]1c1ccc(NC(=O)c2cn(C(=O)OCc3ccccc3)c3ccccc23)cc1` (relative stereo): the IC50 in [1] was 86 nM; in assay [5], 460 nM; in assay [6], more than 70000 nM; in assay [7], 2500 nM; in assay [8] it was 9300 nM. Further, the Ratio IC50 in [2] was 1.7; in [10], 2; in assay [11], 2; in assay [9], less than 8. For the same molecule, the fold change (FC) was less than 4 in assay [3] and less than 6 in assay [4].
Consider `N[C@@H]1C[C@H]1c1ccc(NC(=O)c2cccn2CC(=O)NCc2ccccc2)cc1` (relative stereo), for which the IC50 in assay [1] was determined as 155 nM. Besides, the fold change (FC) in assay [3] was less than 4; in assay [4] it was less than 6.
For `N[C@@H]1C[C@H]1c1ccc(NC(=O)C2CCCN2C(=O)OCc2ccccc2)cc1` (relative stereo), the IC50 in [1] is 61 nM. The Ratio IC50 in [2] is 2.
As for `N[C@@H]1C[C@H]1c1ccc(NC(=O)C(Cc2ccccc2)NC(=O)OCc2ccccc2)cc1` (relative stereo), the IC50 came out at 10200 nM in assay [7] and 17400 nM in assay [8].
As for `N[C@@H]1C[C@H]1c1ccc(NC(=O)c2cccn2CC(=O)c2ccccc2)cc1` (relative stereo), the IC50 in assay [1] was 1320 nM.

(Values after ChEMBL document CHEMBL3734732, “Pyrrole- and indole-containing tranylcypromine derivatives as novel lysine-specific demethylase 1 inhibitors active on cancer cells” (Medchemcomm, 2015).)
